“Also recorded” adds a separate entry of the source.
Key:
UGT1A1 = assay: Recombinant human UGT screen: glucuronidation by UGT1A1; format: biochemical; conditions: 10 μM aglycone, recombinant UGTs
Description: Recombinant human UGTs 1A1, 1A3, 1A6, 1A7, 1A8, 1A9, 1A10, 2A1, 2A2, 2A3, 2B4, 2B10, 2B7, and 2B17 were produced, as His-tagged proteins, in baculovirus-infected insect cells as previously described.[37]−[39] The relative expression level of each of these recombinant UGTs was evaluated by immunodetection, using monoclonal antibody against the His-tag, as described elsewhere.[40] A numeric value of 1.0 was given to the expression level of UGT1A8 and the relative expression level of each of the other UGTs was related to this value. Normalized activities were obtained by dividing the glucuronidation rate values by the relative expression level of the tested UGT. […] The expression levels of the UGTs in the commercial samples could not be determined, so their protein concentration was used to calculate the reaction rate.
The incubation mixtures for glucuronidation assays contained 100 mM Tris-HCl buffer pH 7.4, 2.5 mM MgCl2, 0.5 mM UDPGA, recombinant UGT, or microsomes as the enzyme source and 0–15 μM of the test aglycone substrate. […] In subsequent experiments, the control samples lacked the enzyme source since it gave the highest fluorescence background. […] Fluorescence spectra (excitation 200–420 nm; emission 400–600 nm) or fluorescence decrease at 390 nm excitation and 460 nm emission, were measured in these preliminary experiments, using a Shimadzu RF-5000 spectrophotofluorometer. […]

[1] = Excitation and emission fluorescence spectra of coumarin derivatives; format: physicochemical; parameters: dose or concentration left out as unconfirmed
Description: The absorbance spectra of 10 μM coumarin derivatives at 100 mM Tris–HCl pH 7.4 containing 10% dimethyl sulfoxide were measured using a Hitachi U-2000 Spectrophotometer (Tokyo, Japan). […] The excitation spectra was from 200 to 420 at 460 nm emission and the emission spectra was from 400 to 600 at 390 nm excitation (data in Supplementary Table S1 and Figures S1 and S2). The effect of pH on fluorescence intensity was determined at 405 nm excitation and 460 nm emission, in the presence of 1.5% trichloroacetic acid, 100 mM phosphate buffers at pH 5, 6, 7, 8, and 9, or 1.6 M glycine–NaOH pH 10.4.

[2] = Absorbance spectra of coumarin derivatives; format: physicochemical; conditions: 10 μM, 100 mM Tris–HCl pH 7.4, 10% dimethyl sulfoxide
Description: The absorbance spectra of 10 μM coumarin derivatives at 100 mM Tris–HCl pH 7.4 containing 10% dimethyl sulfoxide were measured using a Hitachi U-2000 Spectrophotometer (Tokyo, Japan). Excitation and emission fluorescence spectra of 0.1 μM coumarin derivatives in 100 mM Tris-HCl pH 7.4 were measured using a Shimadzu RF-5000 spectrophotofluorometer (Tokyo, Japan). The excitation spectra was from 200 to 420 at 460 nm emission and the emission spectra was from 400 to 600 at 390 nm excitation (data in Supplementary Table S1 and Figures S1 and S2). The effect of pH on fluorescence intensity was determined at 405 nm excitation and 460 nm emission, in the presence of 1.5% trichloroacetic acid, 100 mM phosphate buffers at pH 5, 6, 7, 8, and 9, or 1.6 M glycine–NaOH pH 10.4.

[3] = system: human intestinal microsomes (HIM); assay: Glucuronidation by human intestinal microsomes (HIM); format: in vitro ADME; conditions: 10 μM aglycone
Description: (§1) A commercial HLM pool (cat no:452210, BD Gentest, Bedford, MA) and human intestine microsomes (HIM) pool (lot. no 1110189, XenoTech, Kansas City, KS) were purchased. Pig liver samples were prepared from untreated female pigs that were used for practicing surgical procedures at the University of Kuopio (currently: University of Eastern Finland, Kuopio campus). Other animal liver microsomes were prepared as described previously.[41] The Ethics Committee for Animal Experiments, University of Kuopio, approved these experiments.
(§2) The incubation mixtures for glucuronidation assays contained 100 mM Tris-HCl buffer pH 7.4, 2.5 mM MgCl2, 0.5 mM UDPGA, recombinant UGT, or microsomes as the enzyme source and 0–15 μM of the test aglycone substrate. When the incubation mixtures contained microsomes, alamethicin was used at a final concentration of 12.5 μg/mL, but it was not included in the recombinant enzyme assays.[43] In the first experiments three negative control samples were tested, namely (i) without the substrate 7-hydroxycoumarin derivative, (ii) without the cofactor UDPGA, or (iii) without the enzyme source. In subsequent experiments, the control samples lacked the enzyme source since it gave the highest fluorescence background. Preliminary experiments were done under different conditions than most of the later assays, namely in 2.5 mL of 100 mM phosphate buffer pH 7.4, containing 500 μg pig liver microsomes, 1.0 μM compound 6 and 0.5 mM UDPGA, at room temperature. Fluorescence spectra (excitation 200–420 nm; emission 400–600 nm) or fluorescence decrease at 390 nm excitation and 460 nm emission, were measured in these preliminary experiments, using a Shimadzu RF-5000 spectrophotofluorometer.
(§3) Most of the glucuronidation assays were carried out in 96 multiwell plate format, and incubations were carried out in 100 μL and at 37 °C, in the presence of Tris–HCl buffer pH 7.4, UDPGA, and the tested 7-hydroxycoumarin derivative, at the indicated concentrations. Fluorescence decline in the multiwell plate experiments was monitored every other minute, for 40 min, using an excitation filter at 405 nm and detection at 460 nm, in a Victor2 1420 Multilabel counter (PerkinElmer, Life Sciences, Turku, Finland). The fluorescence values were transformed into molarity using the aglycone substrates for making the respective standard curves. Slopes of the substrate concentration decrease per minute were calculated using linear regression analysis, in which the linear part of the kinetic assay indicated the glucuronidation rate. Enzyme catalyzed glucuronidation rate was calculated by subtracting the blank value from the full reaction value. The intra-assay variability of the kinetic assays was 6% when compound 6 was used as the aglycone substrate. Kinetic analyses were also performed in the same 96 multiwell plates format, with excitation filter at 405 nm and detection at 460 nm, using 6–8 different substrate concentrations per substrate and two different protein concentrations for both the wild-type and mutant UGT1A10. The higher concentrations, 13.5 mg/L for UGT1A10 and 12.0 mg/L for the UGT1A10 mutant, were used when the substrates were HFC, compounds 4 and 6, whereas the lower protein concentrations, 6.75 and 6.0 mg/L for UGT1A10 and the mutant, respectively, were used when the substrates were compounds 1, 2, 3, and 5.

[4] = target: T1, UGT1A10 mutant 1A10-H210M (Homo sapiens, UniProt Q9HAW8, H210M); assay: Glucuronidation kinetics by UGT1A10 mutant 1A10-H210M (fluorescence decrease, 96-well plate); format: biochemical; conditions: mutant versus wild-type UGT1A10
T1 construct: His-tag; made in house; host or cells: baculovirus-infected SF9 insect cells
T1 sequence (Q9HAW8 26-530 H210M): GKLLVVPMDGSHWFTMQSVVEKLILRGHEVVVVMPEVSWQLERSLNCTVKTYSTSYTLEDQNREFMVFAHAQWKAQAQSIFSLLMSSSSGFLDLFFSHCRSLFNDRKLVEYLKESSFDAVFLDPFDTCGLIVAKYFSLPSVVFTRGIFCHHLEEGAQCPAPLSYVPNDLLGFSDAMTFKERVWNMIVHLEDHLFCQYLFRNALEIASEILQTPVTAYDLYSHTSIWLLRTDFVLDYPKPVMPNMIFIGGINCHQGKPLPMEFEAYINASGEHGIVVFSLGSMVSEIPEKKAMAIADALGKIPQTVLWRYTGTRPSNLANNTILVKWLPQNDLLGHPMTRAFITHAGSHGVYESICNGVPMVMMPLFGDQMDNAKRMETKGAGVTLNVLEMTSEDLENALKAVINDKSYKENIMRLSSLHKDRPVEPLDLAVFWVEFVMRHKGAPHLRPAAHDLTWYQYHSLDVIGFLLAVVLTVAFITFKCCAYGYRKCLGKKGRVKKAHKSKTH
Description: The UGT1A10 mutant 1A10-H210 M was prepared according to the QuikChange methodology, using the cloned UGT1A10 in pFastBac[42] as a template and the following two oligonucleotides:
The entire coding sequence of UGT1A10 in the mutant clone was sequenced, and subsequently, recombinant baculovirus was prepared and used to express the mutant enzyme in baculovirus-infected SF9 insect cells.
as §2, with “Preliminary experiments were done under different conditions than most of the later assays, namely in 2.5 mL of 100 mM phosphate buffer pH 7.4, containing 500 μg pig liver microsomes, 1.0 μM compound 6 and 0.5 mM UDPGA, at room temperature.” left out
Most of the glucuronidation assays were carried out in 96 multiwell plate format, and incubations were carried out in 100 μL and at 37 °C, in the presence of Tris–HCl buffer pH 7.4, UDPGA, and the tested 7-hydroxycoumarin derivative, at the indicated concentrations. Fluorescence decline in the multiwell plate experiments was monitored every other minute, for 40 min, using an excitation filter at 405 nm and detection at 460 nm, in a Victor2 1420 Multilabel counter (PerkinElmer, Life Sciences, Turku, Finland). The fluorescence values were transformed into molarity using the aglycone substrates for making the respective standard curves. […] Enzyme catalyzed glucuronidation rate was calculated by subtracting the blank value from the full reaction value. […]

human UGTs = assay: Recombinant human UGT screen: glucuronidation rates across human UGTs; format: biochemical; conditions: 10 μM aglycone
Description: Recombinant human UGTs 1A1, 1A3, 1A6, 1A7, 1A8, 1A9, 1A10, 2A1, 2A2, 2A3, 2B4, 2B10, 2B7, and 2B17 were produced, as His-tagged proteins, in baculovirus-infected insect cells as previously described.[37]−[39] The relative expression level of each of these recombinant UGTs was evaluated by immunodetection, using monoclonal antibody against the His-tag, as described elsewhere.[40] A numeric value of 1.0 was given to the expression level of UGT1A8 and the relative expression level of each of the other UGTs was related to this value. Normalized activities were obtained by dividing the glucuronidation rate values by the relative expression level of the tested UGT. In addition, UGTs 1A4, 2B10, and 2B15 were purchased from Corning Life Sciences (New York) and are marked, in Figure 5, with a “C” to indicate that they are commercial enzymes. The expression levels of the UGTs in the commercial samples could not be determined, so their protein concentration was used to calculate the reaction rate.
as §2, §3

[5] = system: human liver microsomes (HLM); assay: Glucuronidation by human liver microsomes (HLM); format: in vitro ADME; conditions: 10 μM aglycone
Description: as §1, §2, §3

| Compound | Glucuronidation rate by UGT1A1 relative to the corresponding UGT1A10 rate (UGT1A1) | Fluorescence EMmax [1] [nm] | Amax [2] [nm] | ε abs [2] [M⁻¹ cm⁻¹] | Fluorescence EXmax [1] [nm] | Glucuronidation rate, HLM compared with HIM (in words) [3] | Change of Km by the H210M mutation (in words) [4] | UGT(s) that primarily glucuronidate the substrate (human UGTs; control substrates) | Selectivity among human UGTs (human UGTs; other UGTs at very low rates) | Glucuronidation by HLM (in words) [5] |
| --- | --- | --- | --- | --- | --- | --- | --- | --- | --- | --- |
| O=c1oc2cc(O)ccc2cc1-c1ccc(F)cc1 [Compound 1, 7-hydroxy-3-(4-fluorophenyl)-2H-chromen-2-one] | about 40% | 466 | 344 | 19000 |  |  |  |  |  |  |
| COc1ccc(-c2cc3ccc(O)cc3oc2=O)cc1 [Compound 3, 7-hydroxy-3-(4-methoxyphenyl)coumarin] | ~20% | 472 | 350 | 17300 | 368 |  |  |  |  |  |
| O=c1cc(C(F)(F)F)c2ccc(O)cc2o1 [HFC, 4-(trifluoromethyl)-7-hydroxycoumarin, reference compound] |  |  |  |  |  | much higher rates by HLM than by HIM | increase | UGT1A6 and UGT1A10 |  |  |
| O=c1oc2cc(O)ccc2cc1-c1ccc(O)cc1 [Compound 2, 7-hydroxy-3-(4-hydroxyphenyl)-2H-chromen-2one] |  | 475 | 352 | 20000 | 395 |  | considerably increased |  | selective for UGT1A10 | not glucuronidated by HLM at all, or only at very low rates; also recorded: very low or below the detection limit |

Source: article PMC6150735, “Molecular Docking-Based Design and Development of a Highly Selective Probe Substrate for UDP-glucuronosyltransferase 1A10” (Molecular Pharmaceutics, 2018)
